US7575882B2, “Compositions and methods for identifying modulators of TRPV2” (Janssen Pharmaceutica N. V., priority 2005, dated 2009)

Experiments:
human TRPV2 = molecular target: T1, human TRPV2 (Homo sapiens, UniProt Q9Y5S1); test: Whole-cell patch clamp, HEK293 cells transiently transfected with human TRPV2; type: cell-based; settings: 10 μM ruthenium red; 100 μM Δ^9-THC
T1 construct: A cDNA fragment encoding the full-length human TRPV2 was subcloned into pCI-neo or pcDNA3; expressed in transfected cells; host or cells: HEK293, transient, pCI-neo or pcDNA3
T1 sequence (Q9Y5S1 1-764): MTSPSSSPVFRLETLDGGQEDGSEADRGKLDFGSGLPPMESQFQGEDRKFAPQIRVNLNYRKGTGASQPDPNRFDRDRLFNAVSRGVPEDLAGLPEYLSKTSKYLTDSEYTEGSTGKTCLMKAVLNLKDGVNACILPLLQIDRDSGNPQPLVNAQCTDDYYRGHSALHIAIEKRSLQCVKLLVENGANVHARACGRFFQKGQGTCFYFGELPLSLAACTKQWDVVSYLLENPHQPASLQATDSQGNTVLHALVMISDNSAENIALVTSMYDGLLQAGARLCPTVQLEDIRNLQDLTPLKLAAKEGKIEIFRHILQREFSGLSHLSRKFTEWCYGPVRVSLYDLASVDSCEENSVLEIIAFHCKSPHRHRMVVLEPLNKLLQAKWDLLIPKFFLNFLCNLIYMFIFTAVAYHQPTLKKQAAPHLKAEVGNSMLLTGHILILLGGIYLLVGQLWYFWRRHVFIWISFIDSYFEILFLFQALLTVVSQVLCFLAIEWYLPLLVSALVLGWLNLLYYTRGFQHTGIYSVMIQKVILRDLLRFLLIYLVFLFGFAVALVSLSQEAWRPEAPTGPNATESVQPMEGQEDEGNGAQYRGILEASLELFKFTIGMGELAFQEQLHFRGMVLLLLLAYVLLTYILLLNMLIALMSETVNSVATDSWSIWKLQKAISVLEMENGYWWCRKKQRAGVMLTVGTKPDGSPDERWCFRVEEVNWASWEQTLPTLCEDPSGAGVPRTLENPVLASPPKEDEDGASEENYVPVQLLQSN
Description: A cDNA fragment encoding the full-length human TRPV2 was subcloned into pCI-neo or pcDNA3 mammalian expression vectors. The expression constructs were then transfected into HEK293 cells with FuGene6 transfection reagent (Roche, Indianapolis, Ind.) according to vendor's protocol. TRPV2-expressing HEK293 cells were cultured in DMEM supplemented with 10% fetal bovine serum, 100 units/ml penicillin, and 100 μg/ml streptomycin for 48-72 hr and either evaluated for transient expression and/or activity, or dosed with 400 μg/ml G418 to select for stably-transfected TRPV2-expressing cell clones. Cells were maintained at 37° C. and in 5% CO2.
To further confirm the Δ^9-THC effect on TRPV2, whole-cell patch clamp studies were performed. The extracellular solution contained (in mM): NaCl, 132; CaCl, 1.8; KCl, 5.4; MgCl2, 0.8; HEPES, 10; glucose, 10; pH=7.4. The intracellular solution used to fill recording pipettes contained (in mM): CsCl, 145; EGTA, 5; HEPES, 10; glucose, 5; pH=7.4. […] Currents were amplified by a patch clamp amplifier and filtered at 2 kHz (Axopatch 200B), sampled at 10 kHz using Digidata 1322A and acquired and analyzed with pClamp 9.0 (all instruments from Molecular Devices, CA). […]

rat TRPV2 = molecular target: T2, rat TRPV2 (Rattus norvegicus, UniProt Q9WUD2, A713V/L151P/T158I); test: Whole-cell patch clamp, HEK293 cells stably expressing rat TRPV2; type: cell-based; settings: 10 μM ruthenium red; 100 μM Δ^9-THC
T2 construct: A cDNA fragment encoding the full-length rat TRPV2 was subcloned into pCI-neo; expressed in transfected cells
T2 sequence (Q9WUD2 1-761 L151P/T158I/A713V): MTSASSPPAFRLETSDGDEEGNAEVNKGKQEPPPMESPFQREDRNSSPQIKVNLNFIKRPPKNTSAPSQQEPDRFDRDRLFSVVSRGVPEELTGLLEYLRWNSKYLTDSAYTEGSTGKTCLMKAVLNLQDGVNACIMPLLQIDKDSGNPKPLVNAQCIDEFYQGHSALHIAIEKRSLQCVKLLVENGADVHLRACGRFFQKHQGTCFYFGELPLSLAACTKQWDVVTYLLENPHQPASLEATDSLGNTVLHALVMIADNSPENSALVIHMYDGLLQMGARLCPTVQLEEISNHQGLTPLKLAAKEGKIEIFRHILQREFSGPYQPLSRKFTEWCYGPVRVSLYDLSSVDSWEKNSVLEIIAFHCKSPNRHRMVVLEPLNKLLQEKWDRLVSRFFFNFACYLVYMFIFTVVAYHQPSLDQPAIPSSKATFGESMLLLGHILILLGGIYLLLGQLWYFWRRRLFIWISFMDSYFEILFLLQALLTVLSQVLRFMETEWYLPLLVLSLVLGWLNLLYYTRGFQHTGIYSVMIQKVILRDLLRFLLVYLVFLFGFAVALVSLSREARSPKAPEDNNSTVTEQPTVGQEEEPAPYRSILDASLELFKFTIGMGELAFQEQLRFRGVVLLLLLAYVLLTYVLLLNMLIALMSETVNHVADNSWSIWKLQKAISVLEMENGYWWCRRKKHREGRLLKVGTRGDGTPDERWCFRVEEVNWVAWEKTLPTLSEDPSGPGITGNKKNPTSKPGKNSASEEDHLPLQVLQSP
Description: To further confirm the Δ^9-THC effect on TRPV2, whole-cell patch clamp studies were performed. The extracellular solution contained (in mM): NaCl, 132; CaCl, 1.8; KCl, 5.4; MgCl2, 0.8; HEPES, 10; glucose, 10; pH=7.4. The intracellular solution used to fill recording pipettes contained (in mM): CsCl, 145; EGTA, 5; HEPES, 10; glucose, 5; pH=7.4. Recordings were performed using the conventional whole-cell patch clamp technique, 2-3 days after transient transfection of human TRPV2 into HEK293 cell or 1-2 days after plating HEK293 cells stably expressing rat TRPV2 onto glass coverslips. Currents were amplified by a patch clamp amplifier and filtered at 2 kHz (Axopatch 200B), sampled at 10 kHz using Digidata 1322A and acquired and analyzed with pClamp 9.0 (all instruments from Molecular Devices, CA). A 600 ms voltage ramp was given once every five seconds from −100 mV to +60 mV. The holding potential between voltage ramps was −100 mV. Extracellular solutions were applied to the cell at 0.5 ml/min via a gravity-fed perfusion system. All experiments were performed at 22° C.

N.N.N.N.N.N.N.N.N.N.N.N.N.N.[Cl-].[Cl-].[Cl-].[Cl-].[Cl-].[Cl-].[O-2].[O-2].[Ru+3].[Ru+3].[Ru+4] [ruthenium red]
inhibition of Δ^9-THC-activated currents, human TRPV2 (human TRPV2): significantly inhibited | inhibition of Δ^9-THC-activated currents, rat TRPV2 (rat TRPV2): significantly inhibited
